Data published in ChEMBL document CHEMBL1926545, “The 2,11-cyclized cembranoids: cladiellins, asbestinins, and briarellins (period 1998-2010)” (J Nat Prod, 2011).
The source made the active and inactive calls. The calls are words filed in the database; no cut-off is given here.

Experiments:
A549 = experiment: Cytotoxicity against human A549 cells; assay type: functional, cell-based
HepG2 = experiment: Cytotoxicity against human HepG2 cells; assay type: functional, cell-based
[1] = Cytotoxicity against human Hep3B cells; assay type: functional, cell-based, Hep 3B2
Ca9-22 = experiment: Cytotoxicity against human Ca9-22 cells; assay type: functional, cell-based
MDA-MB-231 = experiment: Cytotoxicity against human MDA-MB-231 cells; assay type: functional, cell-based
MCF7 = experiment: Cytotoxicity against human MCF7 cells; assay type: functional, cell-based
RAW264.7 [2] = experiment: Antiinflammatory activity in […] RAW264.7 cells assessed as LPS-induced iNOS expression at 10 uM; assay type: functional
RAW264.7 [3] = experiment: Antiinflammatory activity in […] RAW264.7 cells assessed as LPS-induced COX-2 expression at 10 uM; assay type: functional
[4] = Cytostatic activity against human NSCLC-N6 cells; assay type: functional, cell-based
L1210 = experiment: Cytotoxicity against mouse L1210 cells; assay type: functional, cell-based
[5] = Homo sapiens, A549, read-out: IC50
[6] = Homo sapiens, HepG2, read-out: IC50
[7] = Homo sapiens, Hep3B, read-out: IC50
[8] = Homo sapiens, Ca9-22, read-out: IC50
[9] = Homo sapiens, MDA-MB-231, read-out: IC50
[10] = Homo sapiens, MCF7, read-out: IC50

Row | SMILES | IC50 (A549; a549) | IC50 (HepG2; hepg2) | IC50 ([1]; hep 3b2) | IC50 (Ca9-22; ca9-22) | IC50 (MDA-MB-231; mda-mb-231) | IC50 (MCF7; mcf7) | other results
1 | CCCC(=O)O[C@]1(C)CC[C@H](O)[C@@H](C)C[C@H]2O[C@@H]1[C@@H]1[C@@H](C(C)C)[C@H](O)C[C@@](C)(OC(C)=O)[C@@H]12 [KLYSIMPLEXIN A] | Not Active | Not Active | Not Active | Not Active | Not Active | Not Active | –
2 | C=C1C[C@H]2O[C@H]([C@@H]3[C@@H](C(C)C)[C@H](O)C[C@@](C)(OC(C)=O)[C@@H]32)[C@](C)(OC(=O)CCC)CCC1=O [KLYSIMPLEXIN B] | – | – | – | – | – | – | IC50 (A549; [5]): 4.3 µM; IC50 (HepG2; [6]): 6.4 µM; IC50 [1, 7]: 7.8 µM; IC50 (Ca9-22; [8]): 3.9 µM; IC50 (MDA-MB-231; [9]): 15 µM; IC50 (MCF7; [10]): 6.5 µM
3 | C=C1C[C@H]2O[C@H]([C@@H]3[C@@H](C(C)C)[C@H](O)C[C@@](C)(OC(C)=O)[C@@H]32)[C@](C)(OC(=O)CCC)CC[C@@H]1O [KLYSIMPLEXIN C] | Not Active | Not Active | Not Active | Not Active | Not Active | Not Active | –
4 | C=C1C[C@H]2O[C@H]([C@@H]3[C@@H](C(C)C)[C@H](O)C[C@@](C)(OC(C)=O)[C@@H]32)[C@](C)(OC(=O)CCC)CC[C@@H]1OO [KLYSIMPLEXIN D] | Not Active | Not Active | Not Active | Not Active | Not Active | Not Active | –
5 | C=C1C[C@H]2O[C@H]([C@@H]3[C@@H](C(C)C)[C@H](O)C[C@@](C)(OC(C)=O)[C@@H]32)[C@](C)(OC(C)=O)CC[C@@H]1O [KLYSIMPLEXIN E] | Not Active | Not Active | Not Active | Not Active | Not Active | Not Active | –
6 | CCCC(=O)O[C@]1(C)CC[C@H](O)[C@@](C)(O)C[C@H]2O[C@@H]1[C@@H]1[C@@H](C(C)C)[C@H](O)C[C@@](C)(OC(C)=O)[C@@H]12 [KLYSIMPLEXIN F] | Not Active | Not Active | Not Active | Not Active | Not Active | Not Active | –
7 | CC(=O)O[C@]1(C)CC[C@H](C(C)C)[C@@H]2[C@H]1[C@H]1C[C@](C)(O)[C@@H](O)CC[C@@](C)(OC(C)=O)[C@@H]2O1 [KLYSIMPLEXIN G] | Not Active | Not Active | Not Active | Not Active | Not Active | Not Active | –
8 | CCCC(=O)O[C@H]1[C@H](C(C)C)[C@@H]2[C@@H]([C@H]3/C=C(/C)[C@@H](O)CC[C@@](C)(OC(=O)CCC)[C@@H]2O3)[C@](C)(O)[C@@H]1OC(C)=O [KLYSIMPLEXIN H] | – | – | – | – | – | – | IC50 (A549; [5]): 5.1 µM; IC50 (HepG2; [6]): 10 µM; IC50 [1, 7]: 13 µM; IC50 (Ca9-22; [8]): 11 µM; IC50 (MDA-MB-231; [9]): 8 µM; IC50 (MCF7; [10]): 10 µM
9 | CCCC(=O)O[C@]1(C)CCC[C@@](C)([S+](C)[O-])C[C@H]2O[C@@H]1[C@H]1[C@@H]2[C@](C)(OC(C)=O)CC[C@@H]1C(C)C (stereo partly drawn) [KLYSIMPLEXIN SULFOXIDE A] | – | – | – | – | – | – | Activity (RAW264.7 [2]): 8.8%; Activity (RAW264.7 [3]): inactive
10 | CCCC(=O)O[C@H]1[C@H](C(C)C)[C@@H]2[C@@H]([C@H]3C[C@](C)([S+](C)[O-])CCC[C@@](C)(OC(=O)CCC)[C@@H]2O3)[C@](C)(O)[C@@H]1OC(C)=O (stereo partly drawn) [KLYSIMPLEXIN SULFOXIDE B] | – | – | – | – | – | – | Activity (RAW264.7 [2]): 18%; Activity (RAW264.7 [3]): inactive
11 | C=C1C[C@H]2O[C@H]([C@@H]3[C@@H](C(C)C)[C@H](OC(=O)CC[S+](C)[O-])[C@@H](OC(C)=O)[C@@](C)(O)[C@@H]32)[C@](C)(OC(=O)CCC)CC[C@@H]1O (stereo partly drawn) [KLYSIMPLEXIN SULFOXIDE C] | – | – | – | – | – | – | Activity (RAW264.7 [2]): 11%; Activity (RAW264.7 [3]): 7.2%
12 | C=C1C[C@@H]2O[C@@H]([C@@H]3[C@H]2[C@@](C)(OC(C)=O)[C@H](OC(C)=O)C[C@H]3C(C)C)[C@@](C)(OC(C)=O)CC[C@H]1O [LABIATIN C] | – | – | – | – | – | – | IC50 [4]: 16 µM
13 | C=C1C[C@H]2O[C@H]([C@H]3[C@@H]2[C@](C)(OC(C)=O)[C@@H](OC(C)=O)C[C@@H]3C(C)C)[C@](C)(OC(C)=O)CC[C@@H]1O [LABIATIN E] | – | – | – | – | – | – | IC50 [4]: 73 µM
14 | C=C1CC[C@H](C(C)C)[C@@H]2[C@H]1[C@H]1C[C@](C)(O)[C@@H](O)CC[C@@](C)(O)[C@@H]2O1 [SCLEROPHYTIN A] | – | – | – | – | – | – | IC50 (L1210): 0.003 µM; IC50 (A549; [5]): 57 µM
